Patent US20110251143A1, “STABLE ELSAMITRUCIN SALT FORMULATIONS” (Spectrum Pharmaceuticals, Inc., priority 2007, published 2011)

Legend:
[1] = solubility of the p-TSA salt checked by HPLC; format: physicochemical; conditions: for solubility at pH 4 / Concentration (mg/mL) / solubility in water / Concentration: HPLC; for solubility in water / Concentration: slurry stirred at room temperature for six hours
From the text: The solubility of the p-TSA salt in water was checked by HPLC after stirring the slurry at room temperature for six hours.

[2] = solution stability in benzoate buffer (HPLC, MS); format: physicochemical; conditions: benzoate buffer (pH 4), 50° C., ten days, samples at 3, 5, 10 days
Description: (§1) Elsamitrucin salts made in accordance with the teachings of the present disclosure were tested for stability. Two samples of the isolated p-TSA salt (40 mg each) were placed in a vacuum oven at 75° C. for nine hours. After this exposure, sample #1 was taken out, the temperature was increased to 98° C. and the second sample was dried overnight. […] The weight loss by TGA was approximately 2.5% for both samples. Karl Fischer analysis indicated the two lots still had water present: sample #1 had 4.0% water content and #2 had 4.6%. The p-TSA salt (16 mg) of elsamitrucin was dissolved in 1.6 mL of benzoate buffer (pH 4) and stirred at 50° C. for ten days. Samples for HPLC and MS were taken in 3, 5, and 10 days.

[3] = tested on: B16F10 murine melanoma cells; assay: MTT cell growth inhibition, B16F10; format: cell-based; conditions: 5-10 days
Description: (§2) The following experiment confirms that the elsamitrucin salts made in accordance with the teachings of the present disclosure retain their in vitro anti-neoplastic activity when compared to elsamitrucin base. Elsamitrucin and elsamitrucin tosylate were tested in vitro using: B16F10 (murine […]), HCT 116 (human colon), HT29 (human colon) and SK-MES-1 (human non-small cell lung carcinoma). Cell growth inhibition was evaluated in 96-well micro-culture plates with a semi-automated MTT (3-(4,5-dimethylthiazol-2-yl)-2,5-diphenyltetrazolium bromide) assay. […]
(§3) Cell culture plates seeded with test cells and various concentrations of elsamitrucin solutions were placed in a humidified incubator at 37° C., with CO2 and 95% air for 5-10 days. […] Absorbance was monitored at a wavelength of 595 nm, and at a reference wavelength of 650 nm, using a TECAN® GENios mocroplate reader. In all experiments, absorbance data was acquired for each agent at two overlapping concentration ranges. […]
(§4) The results of each test were stored and imported into PRISM® 3.03 for graphical analysis and determination of IC50 values. All results were graphed as a percentage of controlled absorbance versus the drug concentration. […]

[4] = tested on: HCT 116 human colon carcinoma; assay: MTT cell growth inhibition, HCT 116; format: cell-based; conditions: HCT 116, MTT, 5-10 days
Description: as §2, §3, §4

[5] = tested on: HT29 human colon carcinoma; assay: MTT cell growth inhibition, HT29; format: cell-based; conditions: 5-10 days
Description: as §2, §3, §4

[6] = solid state stability, drying at elevated temperatures (NMR); format: physicochemical; conditions: vacuum oven 75° C. nine hours; 98° C. overnight; NMR 1:1 salt ratio
Description: as §1

[7] = tested on: SK-MES-1 human non-small cell lung carcinoma; assay: MTT cell growth inhibition, SK-MES-1; format: cell-based; conditions: SK-MES-1, MTT, 5-10 days
Description: as §2, §3, §4

Substance: elsamitrucin tosylate [Elsamitrucin p-TSA Salt]
- Vial Concentration ([1]; pH 4 (benzoate buffer)): 0.01789 M
- solubility at pH 4 / Concentration (mg/mL) ([1]; pH 4 (benzoate buffer)): 14.7 mg/mL
- solubility at pH 4 / Concentration (mg/mL) ([1]; pH 4 (benzoate buffer), listed as OVL-A-143): 14.78 mg/mL
- Vial Concentration ([1]; water): 0.01891 M
- solubility in water / Concentration ([1]; water): 15.6 mg/mL
- solubility in water / Concentration ([1]; water, listed as OVL-A-137): 15.61 mg/mL
- decomposition in solution [2]: No evidence of the decomposition product
- IC50 [3]: 28 nM
- IC50 [4]: 79 nM
- IC50 [5]: 105 nM
- decomposition in the solid state during drying [6]: no decomposition
- IC50 [7]: 45 nM
